US20220213198A1, “METHOD OF TREATMENT” (The Council of the Queensland Institute of Medical Research, priority 2019, published 2022)

What was measured:
NK cells = test: Ex vivo NK cell effector function in tumor-bearing lungs (IFNγ, CD107a); design: species or system mouse
Protocol: FIG. 3. Upregulation of surface MR1 on tumor cells suppresses NK cell function through MAIT cells. (A) Schematic to analyze NK effector function in the lungs of C57BL/6 WT or MR1^−/− mice injected with 5-OP-RU-pulsed B16F10 or LWT1 cells. On day 5 relative to tumor inoculation, lungs were harvested from the indicated groups of mice (n=5-6/group) and stimulated with PMA/ionomycin plus protein transport inhibitors and NK cell effector function was assessed by flow cytometry. (B) Representative contour plots of IFNγ staining in NK cells (NKp46^+ NK1.1^+ TCRβ^− CD45.2^+) and (C) the proportion and MFI of IFNγ^+ NK cells amongst total NK cells in B16F10-bearing lungs. (D) Representative contour plots of CD107a staining in NK cells and (E) the proportion and MFI of CD107a^+ NK cells amongst total NK cells in B16F10 tumor-bearing lungs. (F) Representative contour plots of IFNγ staining in NK cells and (G) the proportion and MFI of IFNγ^+ NK cells amongst total NK cells in LWT1 tumor-bearing lungs. (H) Representative contour plots of CD107a staining in NK cells and (I) the proportion and MFI of CD107a^+ NK cells amongst total NK cells in the LWT1-bearing lungs. Data presented as mean±SEM. Significant differences between groups as indicated by crossbars were determined using a one-way ANOVA followed by Tukey's post-hoc test, *p<0.05, **p<0.01, ***p<0.001, ****p<0.0001.
(§1) FIG. 4. Upregulation of MR1 on B16F10 activates MAIT cells to suppress NK cell effector function through IL-17. (A) Schematic to analyze MAIT or NK cell effector function in the lungs of C57BL/6 WT or MR1^−/− mice injected with 5-OP-RU- or DMSO-stimulated B16F10 melanoma cells. On day 5 relative to tumor inoculation, lungs were harvested and stimulated with PMA/ionomycin plus protein transport inhibitors for 4 hours and MAIT or NK cell function was assessed by flow cytometry. (B) The proportion of CD69^+ MAIT cells amongst total MAIT cells (B220^− F4/80^− MR1-5-OP-RU tetramer^+ TCRβ^+) in naïve or tumor-bearing lungs. Data presented as mean±SEM. (C) Representative dot plot of IL-17 expression by MAIT cells. The (D) proportion of IL-17^+ MAIT cells amongst total MAIT cells in the lungs of naïve and tumor-bearing mice as indicated. Data presented as mean±SEM. (E) Representative dot plot of TNF expression by MAIT cells. The (F) proportion of TNF MAIT cells and (G) IFNγ^+ MAIT cells amongst total MAIT cells in the lungs of naïve and tumor-bearing mice as indicated. (H, I) On day 5 relative to tumor inoculation, lungs were harvested (n=6/group) and stimulated with PMA/ionomycin plus protein transport inhibitors for 3 hours and NK cell function was assessed by flow cytometry. The proportion of IFNγ^+ NK cells and CD107a^+ NK cells amongst total NK cells (NKp46^+ NK1.1^+ TCRβ^− CD45.2^+) in tumor-bearing C57BL/6 WT or IL-17^−/− mice. Data presented as mean±SEM. (J) Groups of WT or MR1^−/− mice (n=4-6/group) were injected i.v. with 1×10^5 B16F10 melanoma cells. In some groups, sorted MAIT cells (2×10^5 cells/mouse) from C57BL/6 WT or IL-17A^−/− mice were i.v. injected into the indicated groups of mice one day before tumor inoculation. On day 14 relative to tumor cell inoculation, lungs were harvested and the metastatic burden was quantified by counting colonies on the lung surface. Data presented as mean±SEM. Data pooled from two independent experiments for (B, D, F, G). Experiments were performed once for (H-K). Significant differences between groups as indicated by crossbars were determined using a one-way ANOVA followed by Tukey's post-hoc test (B, D, F, J), or a Mann-Whitney test (H, I), *p<0.05, **p<0.01, ***p<0.001, ****p<0.0001.
Single cell suspensions from lungs of the indicated groups were incubated in a 96-well U-bottom plate in complete RPMI 1640 media. Cells were incubated in the presence or absence of cell stimulation cocktail (PMA/ionomycin) plus protein transport inhibitors (Golgistop and Golgiplug) (1000 times dilution) for 3-4 hours as indicated. […]

MAIT cells = test: Ex vivo MAIT cell activation and cytokine profile in tumor-bearing lungs; design: species or system mouse; details: lungs of mice injected with treated vs DMSO-treated B16F10, day 5
Protocol: as §1, with “Data presented as mean±SEM. Data pooled from two independent experiments for (B, D, F, G). Experiments were performed once for (H-K).” left out
Naïve or tumor-bearing lung single-cell suspensions were generated as previously described (Blake et al., 2016) and incubated with anti-CD16/32 (2.4G2) to block Fc receptors on ice prior to surface staining with the antibodies. […] All data were collected on a Fortessa 4 flow cytometer (BD Biosciences) and analyzed with FlowJo v10 software (TreeStar, Inc.).
Single cell suspensions from lungs of the indicated groups were incubated in a 96-well U-bottom plate in complete RPMI 1640 media. […] Briefly, anti-CD107a (1D4B, BioLegend) antibody was added to single cell suspension during the stimulation period before these cells were surface stained and analyzed by flow cytometry.

B16F10 cells = test: B16F10 proliferative and migratory assays in vitro; type: cell-based, mouse; details: co-culture of B16F10 with ligand

Q: Which results are given for `CC(=O)C=Nc1c(NC[C@H](O)[C@H](O)[C@H](O)CO)[nH]c(=O)[nH]c1=O` [5-OP-RU]?
A: proportions of IFNγ producing and CD107a expressing NK cells (NK cells; IL-17A-/- mice, treated vs DMSO-treated B16F10, day 5): this reduction was not observed; NK cell effector function (NK cells; MR1-/- mice that received treated LWT1): did not manifest; NK cell effector function (NK cells; WT mice that received treated LWT1): suppression of NK cell effector function was observed; NK cell function (NK cells; lungs of MR1-/- mice, treated vs DMSO-treated B16F10, day 5): not suppressed; proportions of NK cells producing IFNγ and MFI (NK cells; lungs of WT mice bearing treated vs DMSO-treated B16F10, day 5): significantly decreased; proportions of NK cells expressing CD107a and expression levels (NK cells; lungs of WT mice, treated vs DMSO-treated B16F10, day 5): significantly decreased; proportion of MAIT cells producing IFNγ (MAIT cells): did not change; proportion of MAIT cells that expressed CD69 (MAIT cells): increased proportion; proportion of MAIT cells that expressed IL-17A (MAIT cells): increased proportion; proportion of MAIT cells that expressed TNF (MAIT cells): increased proportion; B16F10 biology as measured by proliferative or migratory assays (B16F10 cells): did not alter the biology of these cells
